# Data as given in the supplement of paper PMC10307832.
# Tests used:
# Assay in all cases: relative viability (nuclei count vs DMSO), 5 days (fraction); higher = more cells survive
# Darinaparsin + Alpelisib = compound: C[As](C)SC[C@H](NC(=O)CC[C@H](N)C(=O)O)C(=O)NCC(=O)O [Darinaparsin] + Cc1nc(NC(=O)N2CCC[C@H]2C(N)=O)sc1-c1ccnc(C(C)(C)C(F)(F)F)c1 [Alpelisib] (partner 2 µM)
# Method in brief: (§1)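 Lung cancer cell lines in 1536-well plates got either a single drug or a fixed anchor-drug dose together with five library-drug doses (not always all listed) in √10 steps, by pin tool, on the day after seeding. Nuclei were counted after 5 days, and relative viability is the treated-to-vehicle ratio of nuclei counts. Values are medians of duplicate plates.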
# QS11 + Trametinib = compound: C1CC2=C(C1)C=C(C=C2)OC3=NC(=C4C(=N3)N(C=N4)CC5=CC=C(C=C5)C6=CC=CC=C6)N[C@@H](CC7=CC=CC=C7)CO [QS11] + CC(=O)Nc1cccc(-n2c(=O)n(C3CC3)c(=O)c3c(Nc4ccc(I)cc4F)n(C)c(=O)c(C)c32)c1 [Trametinib] (partner 0.02 µM)
# Method in brief: as §1
# QS11 + Pemetrexed = compound: C1CC2=C(C1)C=C(C=C2)OC3=NC(=C4C(=N3)N(C=N4)CC5=CC=C(C=C5)C6=CC=CC=C6)N[C@@H](CC7=CC=CC=C7)CO [QS11] + Nc1nc2[nH]cc(CCc3ccc(C(=O)N[C@@H](CCC(=O)O)C(=O)O)cc3)c2c(=O)[nH]1 [Pemetrexed] (partner 0.2 µM)
# Method in brief: as §1
# [1] = compound: C[As](C)SC[C@H](NC(=O)CC[C@H](N)C(=O)O)C(=O)NCC(=O)O [Darinaparsin] + Nc1ncn([C@H]2C[C@H](O)[C@@H](CO)O2)c(=O)n1 [Decitabine] (partner 2 µM)
# Method in brief: as §1
Cell Line,relative viability (Darinaparsin + Alpelisib; first compound 0.08 µM),relative viability (Darinaparsin + Alpelisib; first compound 0.8 µM),relative viability (Darinaparsin + Alpelisib; first compound 2.53 µM),relative viability (Darinaparsin + Alpelisib; first compound 8 µM),relative viability (QS11 + Trametinib; first compound 0.08 µM),relative viability (QS11 + Trametinib; first compound 0.253 µM),relative viability (QS11 + Trametinib; first compound 0.8 µM),relative viability (QS11 + Trametinib; first compound 2.53 µM),relative viability (QS11 + Trametinib; first compound 8 µM),relative viability (QS11 + Pemetrexed; first compound 0.08 µM),relative viability (QS11 + Pemetrexed; first compound 0.253 µM),relative viability (QS11 + Pemetrexed; first compound 0.8 µM),relative viability (QS11 + Pemetrexed; first compound 2.53 µM),relative viability (QS11 + Pemetrexed; first compound 8 µM),relative viability ([1]; first compound 0.08 µM),relative viability ([1]; first compound 0.8 µM),relative viability ([1]; first compound 2.53 µM),relative viability ([1]; first compound 8 µM)
201T,1.12,1.03,0.997,0.82,0.729,0.739,0.566,0.704,0.61,0.357,0.348,0.328,0.358,0.267,0.853,0.83,0.875,0.861
A549,0.973,0.812,0.746,1.08,–,–,–,–,–,–,–,–,–,–,–,0.209,0.229,0.291
A-427,1.11,1.05,1.08,1.12,0.778,0.78,–,0.805,0.767,0.967,0.985,–,0.989,0.979,0.569,0.517,0.581,0.493
ABC-1,0.966,1.16,1.07,1.28,–,–,–,–,–,–,–,–,–,–,1.16,1.09,1.1,0.953
BEN,0.963,1.09,0.956,1.33,1.06,1.11,1.08,1.12,1.11,0.638,0.764,0.911,0.852,0.815,0.724,0.72,0.812,0.811
CAL-12T,1.41,1.01,1.28,1.89,0.313,0.328,0.355,0.367,0.358,1.26,1.37,1.05,1.24,1.04,–,–,–,–
COR-L23,1.02,0.707,0.585,0.893,0.577,0.605,0.585,0.551,0.598,0.196,0.179,0.206,0.198,0.199,0.496,0.394,0.348,0.496
COR-L 105,1.34,1.21,–,1.08,0.433,0.424,0.414,0.415,0.445,1.14,0.96,1.04,0.955,0.942,0.642,0.711,0.621,0.666
Calu-6,1.14,0.975,1.02,0.945,–,–,–,–,–,–,–,–,–,–,–,–,–,–
ChaGo-K-1,–,–,–,–,–,0.984,0.972,0.886,0.931,–,0.269,0.256,0.263,0.255,0.464,0.499,0.506,0.577
EBC-1,0.802,0.773,0.728,0.958,–,–,–,–,–,–,–,–,–,–,–,–,–,–
EKVX,0.943,0.844,0.857,1.1,0.288,0.618,0.3,0.306,0.321,0.385,0.412,0.412,0.356,0.345,0.339,0.323,0.382,0.314
EMC-BAC-2,0.894,0.687,0.709,0.888,0.814,0.954,0.573,0.885,0.804,0.461,0.463,0.409,0.594,0.445,0.916,0.907,1.18,0.969
IA-LM,1.02,0.663,1.4,0.965,–,–,–,–,–,–,–,–,–,–,–,–,–,–
NCI-H522,–,–,–,–,0.795,0.791,0.675,0.799,0.943,0.824,1.02,0.878,1,0.884,0.626,0.627,0.711,0.705
NCI-H727,0.718,0.587,0.549,0.683,0.416,0.404,0.38,0.406,0.396,–,–,–,–,–,0.891,0.816,0.9,1.04
NCI-H1299,1.09,1.18,0.904,1.18,–,–,–,–,–,–,–,–,–,–,–,–,–,–
NCI-H1563,0.903,0.91,1.01,0.894,–,–,–,–,–,0.806,0.838,0.722,0.881,0.886,–,–,–,–
NCI-H1648,–,–,–,–,0.603,0.535,0.423,0.557,0.486,0.762,0.713,0.637,0.748,0.875,–,0.474,–,0.494
NCI-H1650,–,–,–,–,0.459,0.667,0.366,0.751,0.552,0.472,0.33,0.321,0.34,0.366,0.325,0.41,0.397,0.359
NCI-H1703,0.612,0.345,0.283,0.39,–,–,–,–,–,–,–,–,–,–,–,–,–,–
NCI-H2228,1.03,0.992,0.735,0.933,0.483,0.392,0.507,0.788,0.547,0.342,0.337,0.324,0.374,0.372,–,–,–,–
NCI-H2342,–,–,–,–,0.775,0.769,0.838,0.88,0.743,0.77,0.829,0.809,0.797,0.795,0.712,0.688,0.76,0.702
SW 900,–,–,–,–,0.797,0.724,0.724,0.721,0.453,0.384,0.456,0.465,0.503,0.514,0.44,–,0.404,0.462
